Read-outs that look alike come from different tables or passages of the source. Positions of bridges follow the written chain, without caps; N, C: chain ends. Non-standard residues stand in square brackets, D forms with d. Residues, ends and D or L forms follow the SMILES beside them. *: point of attachment. Malonyl(2,2-Me2,histaminyl) = CC(C)(C(=O)NCCc1cnc[nH]1)C(=O)*; Ala(1H-tetrazol-5-yl) = N[C@@H](Cc1nnn[nH]1)C(=O)O; αMeL = CC(C)C[C@](C)(N)C(=O)O; Nle = CCCC[C@H](N)C(=O)O
Columns and labels:
Format in all cases: cell-based
human GLP1 receptor = molecular target: T1, human GLP1 receptor (Homo sapiens, UniProt P43220); test: cAMP accumulation assay, functional agonism of human GLP1 receptor; conditions: HEK cells infected with human GLP1 receptor BacMam virus, HTRF cAMP; for Emax: HEK293, read-out: Human GLP-1R agonist cAMP Emax; for EC50: read-out: Human GLP-1R agonist cAMP pEC50 (converted)
T1 construct: expressed in transfected cells; host or cells: HEK cells, BacMam virus transduction
T1 sequence (P43220 24-463): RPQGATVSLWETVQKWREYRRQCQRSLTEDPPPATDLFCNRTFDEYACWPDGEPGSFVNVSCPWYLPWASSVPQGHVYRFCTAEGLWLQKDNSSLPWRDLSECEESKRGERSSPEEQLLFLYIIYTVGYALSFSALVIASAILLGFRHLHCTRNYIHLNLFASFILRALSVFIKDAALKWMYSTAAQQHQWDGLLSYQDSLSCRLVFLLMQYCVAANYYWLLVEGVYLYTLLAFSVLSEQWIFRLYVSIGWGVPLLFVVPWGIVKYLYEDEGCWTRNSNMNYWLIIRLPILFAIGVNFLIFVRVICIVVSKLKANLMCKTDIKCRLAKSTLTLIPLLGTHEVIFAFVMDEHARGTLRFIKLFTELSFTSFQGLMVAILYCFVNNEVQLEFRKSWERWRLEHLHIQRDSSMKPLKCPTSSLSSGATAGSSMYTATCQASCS
Outline: (§1)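 Frozen HEK cells, previously BacMam-infected 24 h to express either receptor, are stimulated for 45 min at 37° C in IBMX-containing (0.5 mM) HBSS. The reaction is then terminated with HTRF reagents in lysis buffer.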

mouse GLP1 receptor = molecular target: T2, mouse GLP1 receptor (Mus musculus, UniProt O35659); test: cAMP accumulation assay, functional agonism of mouse GLP1 receptor
T2 construct: expressed in transfected cells; host or cells: HEK cells, transient transfection with GeneJuice
T2 sequence (O35659 22-463): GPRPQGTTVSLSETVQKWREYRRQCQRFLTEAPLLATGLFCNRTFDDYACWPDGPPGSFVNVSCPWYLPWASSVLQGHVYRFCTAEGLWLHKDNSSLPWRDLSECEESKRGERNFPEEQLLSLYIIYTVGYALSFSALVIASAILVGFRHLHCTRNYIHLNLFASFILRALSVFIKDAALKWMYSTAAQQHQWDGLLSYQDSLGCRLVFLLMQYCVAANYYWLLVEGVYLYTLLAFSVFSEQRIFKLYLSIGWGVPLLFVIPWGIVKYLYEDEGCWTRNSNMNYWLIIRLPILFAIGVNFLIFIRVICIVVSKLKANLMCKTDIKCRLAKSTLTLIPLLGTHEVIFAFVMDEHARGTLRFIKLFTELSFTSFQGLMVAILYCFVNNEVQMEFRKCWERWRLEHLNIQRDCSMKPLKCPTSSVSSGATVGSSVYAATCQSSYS

human GLP2 receptor = molecular target: T3, human GLP2 receptor (Homo sapiens, UniProt O95838); test: cAMP accumulation assay, functional agonism of human GLP2 receptor; conditions: HEK cells infected with human GLP2 receptor BacMam virus, HTRF cAMP; for Emax: HEK293, read-out: Human GLP-2R agonist cAMP Emax; for EC50: read-out: Human GLP-2R agonist cAMP pEC50 (converted)
T3 construct: expressed in transfected cells; host or cells: HEK cells, BacMam virus transduction
T3 sequence (O95838 1-553): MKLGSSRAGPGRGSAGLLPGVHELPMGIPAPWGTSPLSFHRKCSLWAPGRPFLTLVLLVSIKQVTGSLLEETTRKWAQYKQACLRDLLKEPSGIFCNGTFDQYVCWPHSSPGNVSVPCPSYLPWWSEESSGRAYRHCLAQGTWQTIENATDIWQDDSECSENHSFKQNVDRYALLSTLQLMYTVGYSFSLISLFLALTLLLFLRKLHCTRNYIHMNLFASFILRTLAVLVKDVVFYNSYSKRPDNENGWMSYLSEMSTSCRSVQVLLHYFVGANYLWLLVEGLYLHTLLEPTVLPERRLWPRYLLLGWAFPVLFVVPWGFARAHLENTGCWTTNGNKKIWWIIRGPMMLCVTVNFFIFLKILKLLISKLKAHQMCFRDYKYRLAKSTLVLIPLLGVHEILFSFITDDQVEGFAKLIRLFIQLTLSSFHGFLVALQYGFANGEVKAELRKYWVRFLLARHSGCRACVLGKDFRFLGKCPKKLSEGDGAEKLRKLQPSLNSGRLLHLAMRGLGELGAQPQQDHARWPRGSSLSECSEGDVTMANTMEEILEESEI
Outline: as §1

mouse GLP2 receptor = molecular target: T4, mouse GLP2 receptor (Mus musculus, UniProt Q5IXF8); test: cAMP accumulation assay, functional agonism of mouse GLP2 receptor
T4 construct: expressed in transfected cells; host or cells: HEK cells, transient transfection with GeneJuice
T4 sequence (Q5IXF8 1-512): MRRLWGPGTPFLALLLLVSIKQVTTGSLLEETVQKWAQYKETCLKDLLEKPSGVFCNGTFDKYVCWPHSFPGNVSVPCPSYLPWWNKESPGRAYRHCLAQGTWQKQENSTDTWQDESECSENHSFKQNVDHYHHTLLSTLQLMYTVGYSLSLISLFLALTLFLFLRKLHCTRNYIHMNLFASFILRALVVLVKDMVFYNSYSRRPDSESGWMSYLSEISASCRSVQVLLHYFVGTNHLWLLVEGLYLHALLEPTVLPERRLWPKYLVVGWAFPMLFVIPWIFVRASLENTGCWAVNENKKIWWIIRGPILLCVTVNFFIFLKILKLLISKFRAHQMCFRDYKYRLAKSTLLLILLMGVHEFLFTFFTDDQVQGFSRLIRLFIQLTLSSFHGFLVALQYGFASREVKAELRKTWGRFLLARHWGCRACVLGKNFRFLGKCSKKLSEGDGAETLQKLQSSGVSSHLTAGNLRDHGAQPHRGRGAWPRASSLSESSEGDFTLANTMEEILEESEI
Outline: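 Transiently transfected HEK cells (24 h, frozen, 8000/well) in HBSS with 0.5 mM IBMX exposed to compound concentration series for 45 min at 37 °C. cAMP measured by HTRF after lysis and 1 h at RT; pEC50 from four-parameter concentration-response fit.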

[1] = HEK293, HEK cells transiently transfected with mouse GLP1 receptor, HTRF cAMP, read-out: Mouse GLP-1R agonist cAMP Emax
[2] = HEK cells transiently transfected with mouse GLP1 receptor, HTRF cAMP, read-out: Mouse GLP-1R agonist cAMP pEC50 (converted)
[3] = HEK293, HEK cells transiently transfected with mouse GLP2 receptor, HTRF cAMP, read-out: Mouse GLP-2R agonist cAMP Emax
[4] = HEK cells transiently transfected with mouse GLP2 receptor, HTRF cAMP, read-out: Mouse GLP-2R agonist cAMP pEC50 (converted)
[5] = HEK293, read-out: Mouse GLP-1R agonist cAMP Emax
[6] = HEK293, read-out: Mouse GLP-2R agonist cAMP Emax

| Emax (mouse GLP1 receptor; [1]) [%] | EC50 (mouse GLP1 receptor; [2]) [nM] | Emax (mouse GLP2 receptor; [3]) [%] | EC50 (mouse GLP2 receptor; [4]) [nM] | SMILES | Emax (human GLP1 receptor) [%] | EC50 (human GLP1 receptor) [nM] | Emax (human GLP2 receptor) [%] | EC50 (human GLP2 receptor) [nM] | EC50 (mouse GLP1 receptor) [nM] | Emax (mouse GLP1 receptor; [5]) [%] | EC50 (mouse GLP2 receptor) [nM] | Emax (mouse GLP2 receptor; [6]) [%] |
| --- | --- | --- | --- | --- | --- | --- | --- | --- | --- | --- | --- | --- |
| 94.7 | 5.01 | 102 | 0.00794 | CCCC[C@H](NC(=O)[C@H](CCC(=O)O)NC(=O)[C@H](CC(=O)O)NC(=O)[C@H](CO)NC(=O)[C@H](Cc1ccccc1)NC(=O)[C@H](CO)NC(=O)CNC(=O)[C@H](Cc1nn[nH]n1)NC(=O)C(C)(C)C(=O)NCCc1c[nH]cn1)C(=O)N[C@H](Cc1ccccc1)C(=O)N[C@H](C(=O)N[C@H](C(=O)N[C@@H](CC(C)C)C(=O)N[C@@H](CC(=O)O)C(=O)N[C@H]1CC(=O)NCCCC[C@@H](C(=O)N[C@@H](CC(=O)O)C(=O)N[C@@H](Cc2ccccc2)C(=O)N[C@H](C(=O)N[C@@H](CC(N)=O)C(=O)N[C@@H](Cc2c[nH]c3ccccc23)C(=O)N[C@@H](CC(C)C)C(=O)N[C@H](C(=O)N[C@@H](CCC(N)=O)C(=O)N[C@H](C(=O)N[C@@H](CCCCN)C(=O)N[C@H](C(=O)N[C@H](C(=O)N[C@@H](Cc2ccccc2)C(N)=O)[C@@H](C)O)[C@@H](C)CC)[C@@H](C)O)[C@@H](C)CC)[C@@H](C)CC)NC(=O)[C@H](C)NC(=O)[C@H](C)NC(=O)[C@H](CCCCN)NC1=O)[C@@H](C)CC)[C@@H](C)O [Example 95] ({Malonyl(2,2-Me2,histaminyl)}-[Ala(1H-tetrazol-5-yl)]GSFSDE[Nle][dF]TILDDKAAKDFINWLIQTKITF-NH2; lactam 14-18; C-terminus assumed) | 97 | 3.98 | 102 | 0.00794 |  |  |  |  |
|  |  |  |  | CCCC[C@H](NC(=O)[C@H](CCC(=O)O)NC(=O)[C@H](CC(=O)O)NC(=O)[C@H](CO)NC(=O)[C@H](Cc1ccccc1)NC(=O)[C@H](CO)NC(=O)CNC(=O)[C@H](Cc1nn[nH]n1)NC(=O)C(C)(C)C(=O)NCCc1c[nH]cn1)C(=O)N[C@H](Cc1ccccc1)C(=O)N[C@H](C(=O)N[C@H](C(=O)N[C@@H](CC(C)C)C(=O)N[C@@H](CC(=O)O)C(=O)N[C@H]1CCC(=O)NCCCC[C@@H](C(=O)N[C@@H](CC(=O)O)C(=O)N[C@@H](Cc2ccccc2)C(=O)N[C@H](C(=O)N[C@@H](CC(N)=O)C(=O)N[C@@H](Cc2c[nH]c3ccccc23)C(=O)N[C@@H](CC(C)C)C(=O)N[C@H](C(=O)N[C@@H](CCC(N)=O)C(=O)N[C@H](C(=O)N[C@@H](CCCCN)C(=O)N[C@H](C(=O)N[C@H](C(=O)N[C@@H](Cc2ccccc2)C(N)=O)[C@@H](C)O)[C@@H](C)CC)[C@@H](C)O)[C@@H](C)CC)[C@@H](C)CC)NC(=O)[C@H](C)NC(=O)[C@H](C)NC(=O)[C@H](CCCCN)NC1=O)[C@@H](C)CC)[C@@H](C)O [Example 96] ({Malonyl(2,2-Me2,histaminyl)}-[Ala(1H-tetrazol-5-yl)]GSFSDE[Nle][dF]TILDEKAAKDFINWLIQTKITF-NH2; lactam 14-18) | 96.4 | 0.501 | 101 | 0.00631 | 0.794 | 96.1 | 0.794 | 101 |
| 95.5 | 0.2 | 99.9 | 0.316 | CCCC[C@H](NC(=O)[C@H](CCC(=O)O)NC(=O)[C@H](CC(=O)O)NC(=O)[C@H](CO)NC(=O)[C@H](Cc1ccccc1)NC(=O)[C@H](CO)NC(=O)[C@@H](C)NC(=O)[C@H](Cc1nn[nH]n1)NC(=O)C(C)(C)C(=O)NCCc1c[nH]cn1)C(=O)N[C@H](Cc1ccccc1)C(=O)N[C@H](C(=O)N[C@@](C)(CC(C)C)C(=O)N[C@@H](CC(C)C)C(=O)N[C@@H](CC(=O)O)C(=O)N[C@H]1CCC(=O)NCCCC[C@@H](C(=O)N[C@@H](CC(=O)O)C(=O)N[C@@H](Cc2ccccc2)C(=O)N[C@H](C(=O)N[C@H]2CCC(=O)NCCCC[C@@H](C(=O)N[C@H](C(=O)N[C@@H](CCCCN)C(=O)N[C@H](C(=O)N[C@H](C(=O)N[C@@H](Cc3ccccc3)C(N)=O)[C@@H](C)O)[C@@H](C)CC)[C@@H](C)O)NC(=O)[C@H]([C@@H](C)CC)NC(=O)[C@H](CC(C)C)NC(=O)[C@H](Cc3c[nH]c4ccccc34)NC2=O)[C@@H](C)CC)NC(=O)[C@H](C)NC(=O)[C@H](C)NC(=O)[C@H](CCCCN)NC1=O)[C@@H](C)O [Example 116] ({Malonyl(2,2-Me2,histaminyl)}-[Ala(1H-tetrazol-5-yl)][dA]SFSDE[Nle][dF]T[αMeL]LDEKAAKDFIEWLIKTKITF-NH2; lactam 14-18, 22-26 (inferred); C-terminus assumed) | 94.4 | 0.316 | 103 | 0.00794 |  |  |  |  |
|  |  |  |  | CCCC[C@H](NC(=O)[C@H](CCC(=O)O)NC(=O)[C@H](CC(=O)O)NC(=O)[C@H](CO)NC(=O)[C@H](Cc1ccccc1)NC(=O)[C@H](CO)NC(=O)[C@@H](C)NC(=O)[C@H](Cc1nn[nH]n1)NC(=O)C(C)(C)C(=O)NCCc1c[nH]cn1)C(=O)N[C@H](Cc1ccccc1)C(=O)N[C@H](C(=O)N[C@@](C)(CC(C)C)C(=O)N[C@@H](CC(C)C)C(=O)N[C@@H](CC(=O)O)C(=O)N[C@H]1CCC(=O)NCCCC[C@@H](C(=O)N[C@@H](CC(=O)O)C(=O)N[C@@H](Cc2ccccc2)C(=O)N[C@H](C(=O)N[C@H]2CCC(=O)NCCCC[C@@H](C(=O)N[C@H](C(=O)N[C@@H](CCCCN)C(N)=O)[C@@H](C)O)NC(=O)[C@H]([C@@H](C)CC)NC(=O)[C@H](CC(C)C)NC(=O)[C@H](Cc3c[nH]c4ccccc34)NC2=O)[C@@H](C)CC)NC(=O)[C@H](C)NC(=O)[C@H](C)NC(=O)[C@H](CCCCN)NC1=O)[C@@H](C)O [Example 117] ({Malonyl(2,2-Me2,histaminyl)}-[Ala(1H-tetrazol-5-yl)][dA]SFSDE[Nle][dF]T[αMeL]LDEKAAKDFIEWLIKTK-NH2; lactam 14-18, 22-26; C-terminus assumed) | 94.7 | 0.126 | 103 | 0.00316 | 0.0794 | 96.9 | 0.158 | 99.3 |

Source: patent US20240270809A1, “ORAL GLP RECEPTOR AGONISTS” (priority 2020, published 2024)
